Experimental data reported in US5064953A, “Intermediates cephalosporin derivatives” (Mochida Pharmaceutical Co., Ltd., priority 1983, dated 1991).
Values after ≈ are worked out from the molar mass of the structure shown.

Columns and labels:
Assay in all cases: Antibacterial activity in vitro, agar plate dilution method (MIC)
Type in all cases: cell-based
[1] = system: Serratia marcescens IF03759; conditions: 10^6 cells/ml, Mueller Hinton agar, 37° C., 20 hours
Protocol: (§1) Antibacterial activity in vitro was determined in accordance with the agar plate dilution method. A platinum loop each of test bacteria (10^6 cells/ml), cultured in Mueller Hinton broth, was inoculated on Mueller Hinton agar plates which contained test compounds at various concentrations. After cultivating at 37° C. for 20 hours, the minimum inhibitory concentration (MIC μg/ml) was determined.

[2] = system: Klebsiella pneumoniae IF03317; conditions: 10^6 cells/ml, Mueller Hinton agar, 37° C., 20 hours
Protocol: as §1

Escherichia coli 67 = conditions: 10^6 cells/ml, Mueller Hinton agar, 37° C., 20 hours
Protocol: as §1

[3] = system: Pseudomonas aeruginosa IF03445; conditions: 10^6 cells/ml, Mueller Hinton agar, 37° C., 20 hours
Protocol: as §1

Proteus morganii IF03848 = conditions: Morganella morganii, 10^6 cells/ml, Mueller Hinton agar, 37° C., 20 hours
Protocol: as §1

[4] = system: Staphylococcus aureus Smith; conditions: 10^6 cells/ml, Mueller Hinton agar, 37° C., 20 hours
Protocol: as §1

## CO/N=C(\C(=O)N[C@@H]1C(=O)N2C(C(=O)O)=C(CSc3c(C(=O)O)cnc4ncnn34)CS[C@H]12)c1csc(N)n1 [Compound 3, (6R,7R)-7-[2-(2-amino-4-thiazolyl)-2-(Z-methoxyimino)acetamido]-3-[(6-carboxy-s-triazolo[1,5-a]pyrimidin-7-yl)-thiomethyl]-8-oxo-5-thia-1-azabicyclo [4.2.0]oct-2-ene-2-carboxylic acid]
[1]
  MIC: 0.78 µg/mL (≈ 1.32 µM)
[2]
  MIC: < 0.05 µg/mL
Escherichia coli 67
  MIC: 0.39 µg/mL (≈ 0.659 µM)
[3]
  MIC: > 100 µg/mL
Proteus morganii IF03848
  MIC: 1.57 µg/mL (≈ 2.65 µM)
[4]
  MIC: 12.5 µg/mL (≈ 21.1 µM)

## CO/N=C(\C(=O)N[C@@H]1C(=O)N2C(C(=O)O)=C(CSc3cc(C)nc4nc(CC(=O)O)nn34)CS[C@H]12)c1csc(N)n1 [Compound 4, (6R,7R)-7-[2-(2-amino-4-thiazolyl)-2-(Z-methoxyimino)acetamido]-3-[(2-carboxymethyl-5-methyl-s-triazolo[1,5-a]pyrimidin-7-yl)thiomethyl]-8-oxo-5-thia-1-azabicyclo[4.2.0]oct-2-ene-2-carboxylic acid]
[1]
  MIC: 0.1 µg/mL (≈ 0.161 µM)
[2]
  MIC: < 0.05 µg/mL
Escherichia coli 67
  MIC: 0.2 µg/mL (≈ 0.323 µM)
[3]
  MIC: 25 µg/mL (≈ 40.3 µM)
Proteus morganii IF03848
  MIC: 0.78 µg/mL (≈ 1.26 µM)
[4]
  MIC: 3.13 µg/mL (≈ 5.05 µM)

## CO/N=C(\C(=O)N[C@@H]1C(=O)N2C(C(=O)O)=C(CSc3cc(CC(=O)O)nc4ncnn34)CS[C@H]12)c1csc(N)n1 [Compound 5, (6R,7R)-7-[2-(2-amino-4-thiazolyl)-2-(Z-methoxyimino)acetamido]-3-[(5-carboxymethyl-s-triazolo[1,5-a]pyrimidin-7-yl)thiomethyl]-8-oxo-5-thia-1-azabicyclo[4.2.0]oct-2-ene-2-carboxylic acid]
[1]
  MIC: 0.2 µg/mL (≈ 0.33 µM)
[2]
  MIC: < 0.05 µg/mL
Escherichia coli 67
  MIC: 0.1 µg/mL (≈ 0.165 µM)
[3]
  MIC: > 100 µg/mL
Proteus morganii IF03848
  MIC: 0.78 µg/mL (≈ 1.29 µM)
[4]
  MIC: 3.13 µg/mL (≈ 5.17 µM)

## CO/N=C(\C(=O)N[C@@H]1C(=O)N2C(C(=O)O)=C(CSc3c(C(=O)O)cnc4nc(C(=O)O)nn34)CS[C@H]12)c1csc(N)n1 [Compound 7, (6R,7R)-7-[2-(2-amino-4-thiazolyl)-2-(Z-methoxyimino)acetamido]-3-[(2,6-dicarboxy-s-triazolo[1,5-a]pyrimidin-7-yl)thiomethyl]-8-oxo-5-thia-1-azabicyclo[4.2.0]oct-2-ene-2-carboxylic acid]
[1]
  MIC: 0.39 µg/mL (≈ 0.614 µM)
[2]
  MIC: < 0.05 µg/mL
Escherichia coli 67
  MIC: < 0.05 µg/mL
[3]
  MIC: > 100 µg/mL
Proteus morganii IF03848
  MIC: 0.39 µg/mL (≈ 0.614 µM)
[4]
  MIC: 12.5 µg/mL (≈ 19.7 µM)

## Cc1cc(SCC2=C(C(=O)O)N3C(=O)[C@@H](NC(=O)/C(=N\OC(=O)c4cccnc4)c4csc(N)n4)[C@H]3SC2)n2nc(C(=O)O)nc2n1 [Compound 11, (6R,7R)-7-[2-(2-amino-4-thiazolyl)-2-[Z-(3-pyridinecarbonyl)oxyimino]acetamido]-3-[(2-carboxy-5-methyl-s-trizolo[1,5-a]pyrimidin-7-yl)thiomethyl]-8-oxo-5-thia-1-azabicyclo[4.2.0]oct-2-ene-2-carboxylic acid]
[1]
  MIC: < 0.05 µg/mL
[2]
  MIC: < 0.05 µg/mL
Escherichia coli 67
  MIC: < 0.05 µg/mL
[3]
  MIC: > 100 µg/mL
Proteus morganii IF03848
  MIC: 0.1 µg/mL (≈ 0.144 µM)
[4]
  MIC: 0.39 µg/mL (≈ 0.56 µM)

## Cc1cc(SCC2=C(C(=O)O)N3C(=O)[C@@H](NC(=O)/C(=N\OC(=O)c4ccc5c(c4)OCO5)c4csc(N)n4)[C@H]3SC2)n2nc(C(=O)O)nc2n1 [Compound 12]
[1]
  MIC: 0.39 µg/mL (≈ 0.527 µM)
[2]
  MIC: 0.39 µg/mL (≈ 0.527 µM)
Escherichia coli 67
  MIC: 0.39 µg/mL (≈ 0.527 µM)
[3]
  MIC: 25 µg/mL (≈ 33.8 µM)
Proteus morganii IF03848
  MIC: 0.78 µg/mL (≈ 1.05 µM)
[4]
  MIC: 0.78 µg/mL (≈ 1.05 µM)

## CC(=O)Oc1cc(C(=O)O/N=C(\C(=O)N[C@@H]2C(=O)N3C(C(=O)O)=C(CSc4cc(C)nc5nc(C(=O)O)nn45)CS[C@H]23)c2csc(N)n2)cc(OC(C)=O)c1OC(C)=O [Compound 13]
[1]
  MIC: < 0.05 µg/mL
[2]
  MIC: < 0.05 µg/mL
Escherichia coli 67
  MIC: 0.05 µg/mL (≈ 0.0575 µM)
[3]
  MIC: 1.57 µg/mL (≈ 1.8 µM)
Proteus morganii IF03848
  MIC: 0.2 µg/mL (≈ 0.23 µM)
[4]
  MIC: 0.78 µg/mL (≈ 0.897 µM)

## CO/N=C(\C(=O)N[C@@H]1C(=O)N2C(C(=O)O)=C(CSc3ccnc4nc(C(=O)O)nn34)CS[C@H]12)c1csc(N)n1 [Compound 14, (6R,7R)-7-[2-(2-amino-4-thiazolyl)-2-(Z-methoxyimino)acetamido]-3-[(2-carboxy-s-triazolo[1,5-a]pyrimidin-7-yl)thiomethyl]-8-oxo-5-thia-1-azabicyclo[4.2.0]oct-2-ene-2-carboxylic acid]
[1]
  MIC: < 0.05 µg/mL
[2]
  MIC: < 0.05 µg/mL
Escherichia coli 67
  MIC: 0.1 µg/mL (≈ 0.169 µM)
[3]
  MIC: 50 µg/mL (≈ 84.5 µM)
Proteus morganii IF03848
  MIC: 0.2 µg/mL (≈ 0.338 µM)
[4]
  MIC: 3.13 µg/mL (≈ 5.29 µM)

## CO/N=C(\C(=O)N[C@@H]1C(=O)N2C(C(=O)O)=C(CSc3cc(O)nc4nc(C(=O)O)nn34)CS[C@H]12)c1csc(N)n1 [Compound 15]
[1]
  MIC: 0.1 µg/mL (≈ 0.165 µM)
[2]
  MIC: < 0.05 µg/mL
Escherichia coli 67
  MIC: 0.39 µg/mL (≈ 0.642 µM)
[3]
  MIC: 12.5 µg/mL (≈ 20.6 µM)
Proteus morganii IF03848
  MIC: 0.78 µg/mL (≈ 1.28 µM)
[4]
  MIC: 12.5 µg/mL (≈ 20.6 µM)

## CO/N=C(\C(=O)N[C@@H]1C(=O)N2C(C(=O)O)=C(CSc3cc(OC)nc4ncnn34)CS[C@H]12)c1csc(N)n1 [Compound 16, (6R,7R)-7-[2-(2-amino-4-thiazolyl)-2-(Z-methoxyimino)acetamido]-3-[(5-methoxy-s-triazolo[1,5-a]pyrimidin-7-yl)thiomethyl]-8-oxo-5-thia-1-azabicyclo[4.2.0]oct-2-ene-2-carboxylic acid]
[1]
  MIC: 0.39 µg/mL (≈ 0.675 µM)
[2]
  MIC: < 0.05 µg/mL
Escherichia coli 67
  MIC: 0.1 µg/mL (≈ 0.173 µM)
[3]
  MIC: 100 µg/mL (≈ 173 µM)
Proteus morganii IF03848
  MIC: 3.13 µg/mL (≈ 5.42 µM)
[4]
  MIC: 1.57 µg/mL (≈ 2.72 µM)

## CO/N=C(\C(=O)N[C@@H]1C(=O)N2C(C(=O)O)=C(CSc3cc(C)nc4nc(N)nn34)CS[C@H]12)c1csc(N)n1 [Compound 17, (6R,7R)-7-[2-(2-amino-4-thiazolyl)-2-(Z-methoxyimino)acetamido]-3-[(2-amino-5-methyl-s-triazolo[1,5-a]pyrimidin-7-yl)thiomethyl]-8-oxo-5-thia-1-azabicyclo[4.2.0]oct-2-ene-2-carboxylic acid]
[1]
  MIC: 0.2 µg/mL (≈ 0.347 µM)
[2]
  MIC: < 0.05 µg/mL
Escherichia coli 67
  MIC: 0.1 µg/mL (≈ 0.173 µM)
[3]
  MIC: 50 µg/mL (≈ 86.7 µM)
Proteus morganii IF03848
  MIC: 0.39 µg/mL (≈ 0.676 µM)
[4]
  MIC: 1.57 µg/mL (≈ 2.72 µM)

## CO/N=C(\C(=O)N[C@@H]1C(=O)N2C(C(=O)O)=C(CSc3cc(C)nc4nc(S(=O)(=O)O)nn34)CS[C@H]12)c1csc(N)n1 [Compound 18, (6R,7R)-7-[2-(2-amino-4-thiazolyl)-2-(Z-methoxyimino)acetamido]-3-[(2 hydroxysulfonyl-5-methyl-s-triazolo[1,5-a]pyrimidin-7-yl)thiomethyl]-8-oxo-5-thia-1-azabicyclo[4.2.0]oct 2-ene-2-carboxylic acid]
[1]
  MIC: 0.2 µg/mL (≈ 0.312 µM)
[2]
  MIC: < 0.05 µg/mL
Escherichia coli 67
  MIC: < 0.05 µg/mL
[3]
  MIC: 100 µg/mL (≈ 156 µM)
Proteus morganii IF03848
  MIC: 0.78 µg/mL (≈ 1.22 µM)
[4]
  MIC: 0.39 µg/mL (≈ 0.608 µM)

## CO/N=C(\C(=O)N[C@@H]1C(=O)N2C(C(=O)O)=C(CSc3nc4ncc(C(=O)O)c(O)n4n3)CS[C@H]12)c1csc(N)n1 [Compound 19, (6R,7R)-7-[2-(2-amino-4-thiazolyl)-2-(Z-methoxyimino)acetamido]-3-[(6-carboxy-7-hydroxy-s-triazolo[1,5-a]pyrimidin-2-yl)thiomethyl]-8-oxo-5-thia-1-azabicyclo[4.2.0]oct-2-ene-2-carboxylic acid]
[1]
  MIC: < 0.05 µg/mL
[2]
  MIC: < 0.05 µg/mL
Escherichia coli 67
  MIC: < 0.05 µg/mL
[3]
  MIC: 6.25 µg/mL (≈ 10.3 µM)
Proteus morganii IF03848
  MIC: 0.2 µg/mL (≈ 0.329 µM)
[4]
  MIC: 6.25 µg/mL (≈ 10.3 µM)

## CO/N=C(\C(=O)N[C@@H]1C(=O)N2C(C(=O)O)=C(CSc3cc(C(=O)O)nc4nnc(C)n34)CS[C@H]12)c1csc(N)n1 [Compound 20, (6R,7R)-7-[2-(2-amino-4-thiazolyl)-2-(Z-methoxyimino)acetamido]-3-[(7-carboxy-3-methyl-s-triazolo[4,3-a]pyrimidin-5-yl)thiomethyl]-8-oxo-5-thia-1-azabicyclo[4.2.0]oct-2-ene-2-carboxylic acid]
[1]
  MIC: 0.2 µg/mL (≈ 0.33 µM)
[2]
  MIC: < 0.05 µg/mL
Escherichia coli 67
  MIC: 0.2 µg/mL (≈ 0.33 µM)
[3]
  MIC: 12.5 µg/mL (≈ 20.6 µM)
Proteus morganii IF03848
  MIC: 0.78 µg/mL (≈ 1.29 µM)
[4]
  MIC: 3.13 µg/mL (≈ 5.17 µM)

## CO/N=C(\C(=O)N[C@@H]1C(=O)N2C(C(=O)O)=C(CSc3nnc4nc(C(=O)O)cc(O)n34)CS[C@H]12)c1csc(N)n1 [Compound 21, (6R,7R)-7-[2-(2-amino-4-thiazolyl)-2-(Z-methoxyimino)acetamido]-3-[(7-carboxy-5-hydroxy-s-triazolo[4,3-a]pyrimidin-3-yl)thiomethyl]-8-oxo-5-thia-1-azabicyclo[4.2.0]oct-2-ene-2-carboxylic acid]
[1]
  MIC: 1.57 µg/mL (≈ 2.58 µM)
[2]
  MIC: 0.1 µg/mL (≈ 0.165 µM)
Escherichia coli 67
  MIC: 0.78 µg/mL (≈ 1.28 µM)
[3]
  MIC: > 100 µg/mL
Proteus morganii IF03848
  MIC: 3.13 µg/mL (≈ 5.15 µM)
[4]
  MIC: 25 µg/mL (≈ 41.1 µM)

## CO/N=C(\C(=O)N[C@@H]1C(=O)N2C(C(=O)O)=C(CSc3nc(N)cc4ncnn34)CS[C@H]12)c1csc(N)n1 [Compound 22, (6R,7R)-7-[2-(2-amino-4-thiazolyl)-2-(Z-methoxyimino)acetamido]-3-[(7-amino-s-triazolo[1,5-c]pyrimidin-5-yl)thiomethyl]-8 oxo-5-thia-1-azabicyclo[4.2.0]oct-2-ene-2-carboxylic acid]
[1]
  MIC: 0.39 µg/mL (≈ 0.693 µM)
[2]
  MIC: < 0.05 µg/mL
Escherichia coli 67
  MIC: 0.1 µg/mL (≈ 0.178 µM)
[3]
  MIC: 50 µg/mL (≈ 88.9 µM)
Proteus morganii IF03848
  MIC: 0.78 µg/mL (≈ 1.39 µM)
[4]
  MIC: 1.57 µg/mL (≈ 2.79 µM)

## CO/N=C(\C(=O)N[C@@H]1C(=O)N2C(C(=O)O)=C(CSc3nnc4cc(C)nc(O)n34)CS[C@H]12)c1csc(N)n1 [Compound 23, (6R,7R)-7-[2-(2-amino-4-thiazolyl)-2-(Z-methoxyimino)acetamido]-3 [(5-hydroxy-7-methyl-s-triazolo[4,3-c]pyrimidin-3-yl)thiomethyl]-8-oxo-5-thia-1-azabicyclo[4.2.0]oct-2-ene-2-carboxylic acid]
[1]
  MIC: 0.39 µg/mL (≈ 0.675 µM)
[2]
  MIC: < 0.05 µg/mL
Escherichia coli 67
  MIC: 0.1 µg/mL (≈ 0.173 µM)
[3]
  MIC: 50 µg/mL (≈ 86.6 µM)
Proteus morganii IF03848
  MIC: 0.78 µg/mL (≈ 1.35 µM)
[4]
  MIC: 3.13 µg/mL (≈ 5.42 µM)
